Measurements published in patent US20210198633A1, “METHODS AND COMPOSITIONS COMPRISING TANKYRASE INHIBITORS FOR GENERATING INSULIN PRODUCING CELLS” (UNIVERSITY HEALTH NETWORK, priority 2018, published 2021).
“Also recorded” adds a separate entry of the source.

Key:
Assay type in all cases: cell-based, human
[1] = system: H1 cell line; experiment: C-Peptide+/NKX6-1+ beta-like cells by flow cytometry at day 23; settings: treatment day 8 to day 13: WIKI4 9 uM, G007-LK 5 uM, JW74 10 uM, JW55 5 uM
Description: Flow cytometry analysis for C-Peptide (a surrogate for insulin) and NKX6.1 performed at day 23 of differentiation, showing high percentage of C-peptide+/NKX6-1+ cells (beta-like cells). Numbers in each quadrant indicate the relevant percentage of the total population. Results shown are from H1 cell line.
FIG. 7 show specific tankyrase inhibitors generate high percentages of beta-like cells as measured by C-peptide/NKX6-1 double positive cells using H1 cell line. […] Results shown are from H1 cell line. Error bars represent SEM. n=4 for all, n=1 for JW74.

[2] = system: INS^GFP/W reporter line; experiment: INSULIN:GFP+ cells by fluorescence imaging and flow cytometric analysis after further differentiation; settings: NE + IWR-1-endo 3 uM or WIKI4 9 uM day 8 to day 13; read day 21/23; compared with XAV939 1.5 uM and MN64 3 uM
Method: Cells treated with various tankyrase pathway inhibitors (Cell treated with NE alone or NE in combination with tankyras inhibitors (NE+XAV939 1.5 uM, NE+IWR-1-endo 3 uM, NE+MN64 3 uM, NE+WIKI4 9 uM)) between day 8 and day 13 of differentiation were differentiated for an additional 10 days using a modified version of the differentiation protocol developed by Rezania and Pagliuca (Rezania et al 2014, Pagliuca 2014). Representative bright field and fluorescent images of cellular aggregates are shown at day 23 of differentiation. Results shown are from INS^GFP/W reporter line.
Quantification of the percentage of INSULIN:GFP+ cells measured by flow cytometric analysis at day 23 of differentiation, arising from cells treated or untreated with different compounds: XAV939, IWR-1, MN64, WIKI4. Cells were treated using NE (−) or NE in combination with different compounds: XAV939 1.5 uM, IWR-1 3 uM, MN64 3 uM, WIKI4 9 uM. Results shown are from INS^GFP/W reporter line, Error bars represent standard deviation. n=4.
In this report we present a new method to generate PDX1+/NKX6.1+ endoderm from a variety of hPSC lines. […] (See FIGS. 1-5).

[3] = system: INS^GFP/W reporter line; experiment: Insulin transcript by QPCR normalized to TBP; settings: day 23; WIKI4 9 uM compared to IWR-1 3 uM, MN64 3 uM, XAV939 1.5 uM
Method: Cells treated with different tankyrase inhibitors express different amounts of insulin transcript, as measured by QPCR. Shown is the relative expression of insulin transcript normalized to the housekeeping gene TBP (TATA Binding Protein) at day 23 of differentiation, where pancreatic progenitor cells were generated by treating cells with or without XAV939, IWR-1, MN64, WIKI4 (XAV939 1.5 uM, IWR-1 3 uM, MN64 3 uM, WIKI4 9 uM). Adult pancreas is used as positive control. Results shown are from INS^GFP/W reporter line. Error bars represent standard deviation. n=3.

Compound | percentage of C-Peptide+/NKX6-1+ beta-like cells [1] | percentage of INSULIN:GFP+ cells [2] | relative expression of insulin transcript (INS mRNA) normalized to TBP [3]
CS(=O)(=O)c1ccc(-c2nnc(/C=C/c3nnc(-c4ccc(C#N)cc4)o3)n2-c2ccccc2Cl)nc1 [G007-LK] | able to generate a population of C-peptide+/NKX6.1+ insulin-expressing beta-like cells |  | 
O=C(Nc1cccc2cccnc12)c1ccc(N2C(=O)[C@@H]3[C@H](C2=O)[C@@H]2C=C[C@H]3C2)cc1 [IWR-1] |  | higher percentages of INSGFP+ cells; also recorded: higher percentages of Insulin:GFP+ cells | 
COc1ccc(C2(CNC(=O)c3ccc(NC(=O)c4ccco4)cc3)CCOCC2)cc1 [JW55] | able to generate a population of C-peptide+/NKX6.1+ insulin-expressing beta-like cells |  | 
COc1ccc(-n2c(SCc3nc(-c4ccc(C)cc4)no3)nnc2-c2ccncc2)cc1 [JW74] | able to generate a population of C-peptide+/NKX6.1+ insulin-expressing beta-like cells |  | 
COc1ccc(-n2c(SCCCN3C(=O)c4cccc5cccc(c45)C3=O)nnc2-c2ccncc2)cc1 [WIKI4] | high percentages of C-Peptide+/NKX6-1+ insulin expressing beta-like cells; also recorded: able to generate a population of C-peptide+/NKX6.1+ insulin-expressing beta-like cells | higher percentages of INSGFP+ cells; also recorded: higher percentages of Insulin:GFP+ cells | higher levels of INS mRNA
